We go through 19 compounds from patent US20250179059A1 (The Regents of the University of California, priority 2021, published 2025).

Read-outs that look alike come from different tables or passages of the source.

The subject of assay [1] is human SKM-1 acute myeloid leukemia cells. Briefly: SKM-1 antiproliferation cell-based assay (ATPlite). To be noted: Homo sapiens. The procedure, abridged:
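Log-phase cells in RPMI 1640/15% FBS were seeded at 34722 cells/mL and exposed for 4 days to nine-concentration DMSO serial dilutions in triplicate. Viability was read as ATP luminescence (ATPlite 1step), and IC50 values came from variable-slope non-linear regression.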

Assay [2] concerns the target T1, human BRD4 bromodomain II (Homo sapiens, UniProt O60885).
T1 construct: human BRD4 bromodomain II [based on Genbank NM_058243, residues 349-460]; host or cells: E. coli
Briefly: Bromodomain binding assay (AlphaScreen), BRD4 BDII. In outline: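 Compounds (10-point, 3-fold series) were preincubated 30 min at room temperature with E. coli-expressed N-terminal His6-tagged BRD4 BDII (residues 349-460) or BDI (residues 44-170) in 50 mM HEPES pH 7.5, 100 mM NaCl, 0.05% CHAPS, 0.1% BSA, 1% DMSO. Displacement of biotinylated tetra-acetylated H4 1-21 peptide was read by AlphaScreen; IC50 from curve fitting.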

The mark [3] stands for this setting: SKM-1, 96 h, SKM-1 antiproliferation assay, 4 days, Table C2.
Setting [4] is: AlphaScreen assay, Table C2, read-out: BRD4 BDII IC50.
Setting [5] is: SKM-1, SKM-1 antiproliferation assay.
The mark [6] stands for this setting: BRD4 BDII AlphaScreen assay, read-out: BRD4 BD2 IC50.

In assay [1] (setting [3]), `Cn1cc(-c2cc(F)cc(-c3ccc(-n4ccn(C)c4=O)c(Cl)c3)c2O)cc(N2CCC3(CCCN3)C2)c1=O` (centres unmarked) [Example 687, 5-(3′-chloro-5-fluoro-2-hydroxy-4′-(3-methyl-2-oxo-2,3-dihydro-1H-imidazol-1-yl)-[1,1′-biphenyl]-3-yl)-1-methyl-3-(1,7-diazaspiro[4.4]nonan-7-yl)pyridin-2(1H)-one] registered a GI50 of 0.3 to 30 nM. The IC50 in assay [2] (setting [4]) lay in the range of 0.01 to 1 nM.

`Cn1ccn(-c2ccc(-c3cc(F)cc(-c4ccnc(N5CCN(C6CCC6)CC5)c4)c3O)cc2Cl)c1=O` [Example 619, 1-(3-chloro-3′-(2-(4-cyclobutylpiperazin-l-yl)pyridin-4-yl)-5′-fluoro-2′-hydroxy-[1,1′-biphenyl]-4-yl)-3-methyl-1H-imidazol-2(3H)-one] gave a GI50 in assay [1] (setting [3]) of 0.3 to 30 nM. For the same compound, the IC50 in assay [2] (setting [4]) was 0.01 to 1 nM.

In assay [1] (setting [3]), `CN1CCN(c2ccc(-c3cc(F)cc(-c4cnc(OC5CCC(O)CC5)c(N5CCNCC5)c4)c3O)cc2Cl)C1=O` (centres unmarked) [Example 421, 1-(3-chloro-5′-fluoro-2′-hydroxy-3′-(6-((4-hydroxycyclohexyl)oxy)-5-(piperazin-1-yl)pyridin-3-yl)-[1,1′-biphenyl]-4-yl)-3-methylimidazolidin-2-one] gave a GI50 of 30 to 300 nM. Also, the IC50 in assay [2] (setting [4]) was 0.01 to 1 nM.

The compound `Cn1ccn(-c2ccc(-c3cc(F)cc(-c4ccnc(N5CCNC(CCO)C5)c4)c3O)cc2Cl)c1=O` (centres unmarked) [Example 640, 1-(3-chloro-5′-fluoro-2′-hydroxy-3′-(2-(3-(2-hydroxyethyl)piperazin-1-yl)pyridin-4-yl)-[1,1′-biphenyl]-4-yl)-3-methyl-1H-imidazol-2(3H)-one] had a GI50 in assay [1] (setting [3]) of 0.3 to 30 nM. Also, the IC50 in assay [2] (setting [4]) was in the range of 0.01 to 1 nM.

Turning to `COC(=O)c1cc(-c2ccnc(N3CCNCC3)c2)c(O)c(-c2ccc(NC(C)=O)c(F)c2)c1` [Example 290, Methyl 4′-acetamido-3′-fluoro-6-hydroxy-5-(2-(piperazin-1-yl)pyridin-4-yl)-[1,1′-biphenyl]-3-carboxylate], in assay [1] (setting [3]), the GI50 is no less than 3000 nM. The IC50 in assay [2] (setting [4]) was greater than 100 nM.

As for `COc1ncc(-c2cc(F)cc(-c3ccc(-n4ccn(C)c4=O)c(Cl)c3)c2O)cc1N1CC(F)(F)[C@@](C)(O)C1` [Example 899], the GI50 in assay [1] (setting [5]) lay within 300 to 3000 nM. For the same compound, the IC50 in assay [2] (setting [6]) lay within 1 to 10 nM.

In assay [1] (setting [3]), `CO[C@H]1CCN(c2cc(-c3cc(F)cc(-c4ccc(-n5ccn(C)c5=O)c(Cl)c4)c3O)ccn2)C1` [Example 691, (S)-1-(3-chloro-5′-fluoro-2′-hydroxy-3′-(2-(3-methoxypyrrolidin-1-yl)pyridin-4-yl)-[1,1′-biphenyl]-4-yl)-3-methyl-1H-imidazol-2(3H)-one] had a GI50 of 30 to 300 nM. Further, the IC50 in assay [2] (setting [4]) lay within 0.01 to 1 nM.

`Cn1ccn(-c2c(Cl)cc(-c3cc(F)cc(-c4cccc(N5CCN(C(C)(C)C)CC5)c4)c3O)cc2C2CC2)c1=O` [Example 933, 1-(3″-(4-(tert-butyl)piperazin-1-yl)-3-chloro-5-cyclopropyl-5′-fluoro-2′-hydroxy-[1,1′:3′,1″-terphenyl]-4-yl)-3-methyl-1H-imidazol-2(3H)-one]: the GI50 in assay [1] (setting [5]) was in the range of 30 to 300 nM. Besides, the IC50 in assay [2] (setting [6]) is 10 to 100 nM.

Compound `[2H]C([2H])([2H])N1CCN(c2ccc(-c3cc(F)cc(-c4ccnc(N5CCNCC5)c4)c3O)cc2Cl)C1=O` [Example 412, 1-(3-chloro-5′-fluoro-2′-hydroxy-3′-(2-(piperazin-1-yl)pyridin-4-yl)-[1,1′-biphenyl]-4-yl)-^3-deuteromethylimidazolidin-2-one] came in with a GI50 in assay [1] (setting [3]) of 30 to 300 nM. Further, in assay [2] (setting [4]), the IC50 was 0.01 to 1 nM.

For `Cn1ccn(-c2ccc(-c3cc(F)cc(-c4cccc(N5CCCN(C(C)(C)C)CC5)c4)c3O)cc2Cl)c1=O` [Example 851, 1-(3″-(4-(tert-Butyl)-1,4-diazepan-1-yl)-3-chloro-5′-fluoro-2′-hydroxy-[1,1′:3′,1″-terphenyl]-4-yl)-3-methyl-1H-imidazol-2(3H)-one], the GI50 in assay [1] (setting [5]) lay within 30 to 300 nM. Besides, in assay [2] (setting [6]), the IC50 is 1 to 10 nM.

In assay [1] (setting [5]), `Cn1cc(-c2ccc(-n3ccn(C)c3=O)c(Cl)c2)c(O)c(-c2cccc(N3CCN(C(C)(C)C)CC3)c2)c1=O` [Example 1018, 3-(3-(4-(tert-butyl)piperazin-1-yl)phenyl)-5-(3-chloro-4-(3-methyl-2-oxo-2,3-dihydro-1H-imidazol-1-yl)phenyl)-4-hydroxy-1-methylpyridin-2(1H)-one] registered a GI50 of 30 to 300 nM. Moreover, the IC50 in assay [2] (setting [6]) lay in the range of 10 to 100 nM.

As for `Cn1ccn(-c2ccc(-c3cc(F)cc(-c4cc(N5CCC[C@H](N)C5)c5cn[nH]c5c4)c3O)cc2Cl)c1=O` [Example 578], in assay [1] (setting [3]), the 50% growth inhibitory concentration (GI50) fell in the range of 0.3 to 30 nM. In addition, in assay [2] (setting [4]), the IC50 was 0.01 to 1 nM.

For `C[C@@H]1CN(c2cc(-c3cc(F)cc(-c4ccc(-n5ccn(C)c5=O)c(Cl)c4)c3O)cc3[nH]ncc23)CCN1` [Example 543, (R)-1-(3-chloro-5′-fluoro-2′-hydroxy-3′-(4-(3-methylpiperazin-1-yl)-1H-indazol-6-yl)-[1,1′-biphenyl]-4-yl)-3-methyl-1H-imidazol-2(3H)-one], the GI50 in assay [1] (setting [3]) is 0.3 to 30 nM. In assay [2] (setting [4]), the half-inhibitory concentration (IC50) fell in the range of 0.01 to 1 nM.

On to `C[C@@H]1CN(c2cc(-c3cc(F)cc(-c4ccc(-n5ccn(C)c5=O)c(Cl)c4)c3O)cn3ccnc23)CCN1` [Example 584], for which the GI50 in assay [1] (setting [3]) is 0.3 to 30 nM. In addition, in assay [2] (setting [4]), the IC50 is 0.01 to 1 nM.

As for `Cn1ccn(-c2ccc(-c3cc(F)cc(-c4cccc(C5=CCN(C(C)(C)C)CC5)c4)c3O)cc2Cl)c1=O` [Example 951, 1-(3″-(1-(tert-butyl)-1,2,3,6-tetrahydropyridin-4-yl)-3-chloro-5′-fluoro-2′-hydroxy-[1,1′:3′,1″-terphenyl]-4-yl)-3-methyl-1H-imidazol-2(3H)-one], the GI50 in assay [1] (setting [5]) was in the range of 0.3 to 30 nM. Further, in assay [2] (setting [6]), the IC50 was 1 to 10 nM.

Consider `CC(=O)Nc1cc(-c2cc(F)cc(-c3ccc(N4CCN(C)C4=O)c(Cl)c3)c2O)cc(N2CCNCC2)n1` [Example 433, N-(4-(3′-chloro-5-fluoro-2-hydroxy-4′-(3-methyl-2-oxoimidazolidin-1-yl)-[1,1′-biphenyl]-3-yl)-6-(piperazin-1-yl)pyridin-2-yl)acetamide], for which, in assay [1] (setting [3]), the GI50 fell in the range of 0.3 to 30 nM. Besides, the half-maximal inhibitory concentration (IC50) in assay [2] (setting [4]) lay within 1 to 10 nM.

In the case of `Cn1ccn(-c2ccc(-c3cc(F)cc(-c4ccnc(N5CCCCC5)c4)c3O)cc2Cl)c1=O` [Example 612, 1-(3-chloro-5′-fluoro-2′-hydroxy-3′-(2-(piperidin-1-yl)pyridin-4-yl)-[1,1′-biphenyl]-4-yl)-3-methyl-1H-imidazol-2(3H)-one], the GI50 in assay [1] (setting [3]) lay in the range of 300 to 3000 nM. For the same compound, in assay [2] (setting [4]), the IC50 fell in the range of 1 to 10 nM.

`Cn1ccn(-c2ccc(-c3cc(F)cc(-c4ccnc(N5CCN(CC6CCC6)CC5)c4)c3O)cc2Cl)c1=O` [Example 646, 1-(3-chloro-3′-(2-(4-(cyclobutylmethyl)piperazin-1-yl)pyridin-4-yl)-5′-fluoro-2′-hydroxy-[1,1′-biphenyl]-4-yl)-3-methyl-1H-imidazol-2(3H)-one] came in with a concentration for 50% growth inhibition (GI50) in assay [1] (setting [3]) of 0.3 to 30 nM. Further, the half-maximal inhibitory concentration (IC50) in assay [2] (setting [4]) was 0.01 to 1 nM.

As to `CO[C@H]1COC(=O)N1c1ccc(-c2cc(F)cc(-c3ccnc(N4CCNCC4)c3)c2O)cc1Cl` [Example 506, (S)-3-(3-chloro-5′-fluoro-2′-hydroxy-3′-(2-(piperazin-1-yl)pyridin-4-yl)-[1,1′-biphenyl]-4-yl)-4-methoxyoxazolidin-2-one], the GI50 in assay [1] (setting [3]) fell in the range of 300 to 3000 nM. Moreover, the concentration for half-maximal inhibition (IC50) in assay [2] (setting [4]) was 10 to 100 nM.
